“Also recorded” adds a separate entry of the source.
Assays:
[1] = system: Src and STAT5 phosphorylation in DDR2 L63V-expressing Ba/F3 cells; test: Immunoblots of phospho-Src and phospho-STAT5; format: cell-based; conditions: single agent or with nilotinib, AP24534 or dasatinib; two days
Method: Immunoblots: Immunoblots were performed using the Nupage system (Invitrogen) per the manufacturer's protocol. Cells were lysed in 1% NP-40 with protease (Roche) and phosphatase inhibitors (Calbiochem) and protein concentration assayed with the Bradford reagent (Bio-Rad). Primary antibodies used were Flag-M2 (Sigma), phospho-Y417-Src (Cell Signaling Technologies), phospho-Y694-STAT5 (Cell Signaling) and Actin (Santa Cruz). A DDR2 antibody was generated for this project by Bethyl Labs. Secondary HRP-conjugated antibodies were all obtained from Pierce and proteins detected by pico-ECL (Thermo Scientific). Images were imported into Adobe Illustrator using an Epson 4490 scanner. […] In all cases adjustment of brightness or contrast the adjustment was applied uniformly to the image as a whole.

[2] = system: Ba/F3 cells expressing DDR2 mutants; test: Four-day proliferation of IL-3-independent Ba/F3 cells; format: cell-based; conditions: for Killing / proliferation of Ba/F3 cells expressing DDR2 mutants: single agent
Method: (§1) Cell Culture. A549, NCI-H2286, HCC-366 and NCI-H1703 cells were obtained from the core collection at the Dana Farber Cancer Institute, having previously been purchased from the ATCC and used to establish a collection of early passage lung cancer cell lines which were analyzed by fingerprinting and SNP arrays (32). All cells used for the experiments described in this manuscript were obtained from freezes made at that time. Lung cancer cell lines were grown in RPMI (Invitrogen) with 10% fetal calf serum, NIH-3T3 cells were grown in DMEM (Mediatech) with 10% serum and Ba/F3 cells in RPMI supplemented with 10% serum and IL-3 (BD Biosciences) at 10 ng/ml. For IL-3 withdrawal experiments Ba/F3 cells were collected via centrifugation, washed once in sterile PBS and then resuspended in media without IL-3. Colony formation assays in NIH-3T3 cells were performed in six-well plates in which 25,000 NIH-3T3 cells were plated in triplicate in 1 ml of 0.33% top agar on top of 2 ml of 0.5% bottom agar. After three weeks colonies were counted using the NIH ImageJ software.
(§2) Cell Proliferation and Viability Assays. […] Proliferation was measured four days later.

[3] = system: SCC lines harboring DDR2 mutations (NCI-H2286, HCC-366); test: Cell proliferation of DDR2-mutant SCC lines (Cell-Titer-Glo); format: cell-based
DDR2 mutant cell lines [4] = test: Annexin V analysis 48 hours after addition of drug; format: cell-based; conditions: 48 hours after drug
[5] = system: HCC-366 cells (DDR2 L239R); conditions: previous report; cited from earlier work
NCI-H1703 xenografts = test: Xenograft tumor size in nude mice; conditions: 50 mg/kg oral gavage, two weeks
[6] = system: NIH-3T3 cells expressing L63V DDR2; test: Soft agar colony formation; format: cell-based; conditions: L63V DDR2, single application at plating
Method: as §1

DDR2 mutant cell lines [7] = test: Cell viability by trypan blue exclusion; format: cell-based
Method: as §2

[8] = system: NCI-H1703 SCC cell line (PDGFRA amplification); conditions: NCI-H1703, positive control line
Method: Cell Proliferation and Viability Assays. Cell proliferation was measured with the Cell-Titer-Glo reagent (Promega) per the manufacturer's instructions. For experiments with the SCC cell lines cells were plated in clear-bottomed 96 well plates at a density of 1500 cells per well. The following day the drug was added and cell proliferation was measured six days later for the SCC cell lines. For Ba/F3 cells were plated at 5000 cells per well and the drug added the same day. Proliferation was measured four days later. Proliferation measurements were made using a standard 96 well plate luminometer/plate reader. Data are shown as relative values in which the luminescence at a given drug concentration is compared to untreated cells of the same cell type.
Statistics: For proliferation and colony formation assays mean values from a minimum of triplicate samples are reported as well as standard errors as calculated by Microsoft Excel. IC50 values were obtained using Graph Pad Prism software.

[9] = system: NCI-H2286 cells (DDR2 I638F)
Excerpt: (§3) Cell Proliferation and Viability Assays. […] Kinase inhibitors were purchased from LC Labs or were synthesized by Nathanael Gray's laboratory at Harvard Medical School.

[10] = system: HCC-366 cells (DDR2 L239R)
Excerpt: as §3

[11] = human, in vivo; cited from earlier work
NCI-H2286 xenografts = test: Xenograft tumor size in nude mice; conditions: 50 mg/kg oral gavage, two weeks

Compound | Src and STAT5 phosphorylation [1] | Proliferation on addition of AZD0530 ([2]; Ba/F3 DDR2 L63V grown in 50 nM nilotinib) | Killing / proliferation of Ba/F3 cells expressing DDR2 mutants ([2]; without IL-3, four days) | Proliferation of SCC lines harboring DDR2 mutations [3] | Effect on proliferation at 50 nM ([2]; 50 nM, wild-type Ba/F3 or Ba/F3 expressing DDR2 mutations) | Cellular annexin V staining (DDR2 mutant cell lines [4]) | Sensitivity rank among 83 NSCLC cell lines [5] | Tumor size (NCI-H1703 xenografts) | Colony formation in soft agar [6] | Cell death vs cell cycle arrest by trypan blue exclusion (DDR2 mutant cell lines [7]) | Sensitivity of proliferation [8] | Increase of IC50 with ectopic DDR2 T654M gatekeeper mutation ([9]; NCI-H2286 expressing T654M in cis with I638F) [fold] | IC50 ([9]; read-out: IC50, inhibition of proliferation, NCI-H2286, six days) [nM] | Increase of IC50 with ectopic DDR2 T654M gatekeeper mutation ([10]; HCC-366 expressing T654M in cis with L239R) [fold] | IC50 ([10]; read-out: IC50, inhibition of proliferation, HCC-366, six days) [nM] | IC50 ([2]; mean over Ba/F3 lines expressing DDR2 mutants, without IL-3, four days, read-out: Mean calculated IC50) [nM] | Toxicity in patients [11] | Tumor size (NCI-H2286 xenografts)
CN1CCN(CCOc2cc(OC3CCOCC3)c3c(Nc4c(Cl)ccc5c4OCO5)ncnc3c2)CC1 [AZD0530] | reduced Src and STAT5 phosphorylation in a dose-dependent fashion | marked reduction in proliferation | modest effect on the proliferation; also recorded: minimal toxicity | – | – | – | – | – | – | – | – | – | – | – | – | – | – | –
Cc1cn(-c2cc(NC(=O)c3ccc(C)c(Nc4nccc(-c5cccnc5)n4)c3)cc(C(F)(F)F)c2)cn1 [Nilotinib] | – | – | modest activity; also recorded: minimal toxicity | inhibited the proliferation | little effect on proliferation | – | – | – | – | – | – | – | – | – | – | – | – | –
N-(2 ? chloro-6-methylphenyl)-2-[[6-[4-(2-hydroxyethyl)-1-piperazinyl]-2-methyl-4 ? pyrimidinyl]amino]-5-thiazolecarboxamide, monohydrate [Dasatinib] | – | – | – | – | – | increase in cellular annexin V staining | most sensitive squamous cell lung cancer line | decrease in tumor size | inhibited | cell death as opposed to cell cycle arrest | sensitive | 35 | 139 | 209 | 140 | 680 | myelosuppression and the development of pleural and pericardial effusions | decrease in tumor size
